Patent publication US20090197957A1, “Methods and compositions for the treatment of pain” (Nuon Therapeutics, Inc., priority 2005, published 2009)

What was measured:
[1] = system: established CIA; assay: Treatment of established collagen-induced arthritis (clinical score, paw swelling, histology, relapse); format: in vivo, DBA/1 mice
Description: FIG. 2 is a graphical representation of the treatment of established CIA with 3,4-DAA. DBA/1 mice were immunised with type II collagen in CFA and monitored for development of arthritis. On day 1 of arthritis, mice were injected intraperitoneally with 3,4-DAA on a daily basis. Paw thickness was measured with callipers. The clinical scoring system was as follows: 0=normal, 1=slight swelling and/or erythema, and 2=pronounced oedematous swelling. Each limb was graded, giving a maximum score of 8 per mouse. Histological assessment of arthritis was carried out on haematoxylin and eosin stained sections using a scoring system as follows: 0, normal; 1, minimal synovitis without cartilage/bone erosion; 2, synovitis with some marginal erosion but joint architecture maintained; 3, severe synovitis and erosion with loss of normal joint architecture. There were 14 mice/group (data pooled from two separate experiments).
FIG. 5 is a graphical representation of the relapse of arthritis 4 days after cessation of therapy. Mice with established CIA (n=6) were treated with 3,4-DAA (400 mg/kg/day) from days 1 to 5 of arthritis and clinical severity of arthritis was monitored up to day 12. Arthritis is seen to relapse at around day 9.
(§1) Type II collagen was purified from bovine cartilage, as described [Williams 2004, Methods Mol. Med. 98:207-216] and solubilized by stirring overnight at 4° C. in acetic acid (0.1M) or Tris buffer (0.05 M Tris, containing 0.2 M NaCl, pH 7.4). 3,4-DAA was synthesised by Angiogen Pharmaceuticals Pty. Ltd. For in vivo studies 3,4-DAA was dissolved at a maximum concentration of 10 mg/ml in 1% sodium bicarbonate by heating for 1 h at 70° C. Upon cooling, an emulsion was formed. For in vitro studies 3,4-DAA was dissolved in dimethyl sulphoxide (DMSO). 3-Hydroxy-anthranilic acid (3-HAA) was purchased from Sigma (Poole, UK) and dissolved in PBS.
(§2) Male DBA/1 mice (8-12 weeks old) were immunized intradermally at the base of the tail with bovine type II collagen (200 μg) emulsified in complete Freund's adjuvant (CFA; Difco, West Molesley, UK). Arthritis was monitored clinically using the following scoring system: 0=normal, 1=slight swelling and/or erythema, and 2=pronounced oedematous swelling. Each limb was graded, giving a maximum score of 8 per mouse. In addition, paw-swelling was measured using callipers.
Histopathological assessment of arthritis was carried out in a ‘blinded’ fashion on decalcified haematoxylin and eosin stained sections using a scoring system as follows: 0, normal; 1, minimal synovitis without cartilage/bone erosion; 2, synovitis with some marginal erosion but joint architecture maintained; 3, severe synovitis and erosion with loss of normal joint architecture. This research was approved by the local ethical review process committee and by the Home Office of Great Britain.
The ability of 3,4-DAA to treat established CIA was tested. Mice were immunised with type II collagen in CFA. On day 1 of clinical arthritis (the day that arthritis was first observed) mice were randomly assigned to different treatment groups and given 3,4-DAA (100 mg/kg/day, 200 mg/kg/day or 400 mg/kg/day) or vehicle alone over a 10 day period. […] Significant differences between 3,4-DAA treated and control mice were observed from day 3 until the end of the treatment period (day 10). On day 10 the mice were killed and the first paw to show clinical evidence of arthritis was processed for histology. Joints were examined ‘blindly’ for severity of inflammation and joint erosion.
Therefore, it is clearly of interest to establish what happens in vivo when treatment with 3,4-DAA is stopped. Is there a disease flare and if so, does it occur immediately after cessation of treatment? […] Treatment was then stopped and mice were monitored for a further 7 days.

[2] = system: collagen-induced arthritis (CIA); assay: Development of collagen-induced arthritis (treatment from day of immunisation); format: in vivo, DBA/1 mice; settings: 200 mg/kg/day from the day of immunisation
Description: as §1, §2
In order to assess its anti-arthritic potential, 3,4-DAA was injected into DBA/1 mice (200 mg/kg/day) from the day of immunisation with type II collagen in CFA. […]

[3] = 11,484 patients with restenosis following percutaneous coronary intervention; cited from earlier work
[4] = system: draining (inguinal) lymph node cells; assay: Lymph node cell cytokine responses from treated CIA mice (72 h culture, ELISA); format: in vivo
Description: FIG. 4 is a graphical representation of the results of mice with established CIA being treated for 10 days with 3,4-DAA or vehicle control. Mice were then killed and draining (inguinal) lymph node cells were cultured for 72 h in the absence or presence of type II collagen.
Inguinal lymph nodes were excised from 3,4-DAA-treated and control mice. Alternatively, inguinal lymph nodes were removed from untreated arthritic mice (day 1-5 of arthritis) and 3,4-DAA was added in vitro. In both cases, a single cell suspension was prepared and LNC were cultured in RPMI 1640 containing FCS (10% v/v), 2-mercaptoethanol (20 μM), L-glutamine (1% w/v), penicillin (100 U/ml) and streptomycin (100 μg/ml) in the presence or absence of type II collagen (50 μg/ml). Secreted cytokines (IFN-γ, IL-5, and IL-10) were measured after 72 h. by ELISA. In brief, 96 well ELISA plates were coated with the respective capture antibody, blocked with bovine serum albumin (2% w/v), and then incubated with LNC culture supernatants overnight at 4° C. After washing, bound cytokines were detected using biotinylated detect antibodies. A standard curve was generated using known concentrations of the appropriate recombinant cytokine and the concentrations of cytokines present in culture supernatants were estimated by reference to the standard curve.
At the end of the experiment draining (inguinal) LNC from control and treated mice were cultured for 72 h in the presence or absence of type II collagen. IFN-γ, IL-5 and IL-10 production was measured by ELISA.

[5] = established CIA, 100, 200 or 400 mg/kg/day over 10 days
[6] = up to 10 days therapy, 3,4-DAA 200 mg/kg/day, dexamethasone 0.5 mg/kg/2 days

Structure (SMILES)	action on inflammation in CIA ([1]; administered therapeutically at doses of up to 400 mg/kg/day)	arthritis severity during the treatment period ([1]; 400 mg/kg/day from day 1 to day 5 of arthritis)	day of arthritis on which exacerbation/relapse was observed after treatment stopped on day 5 ([1]; 400 mg/kg/day from days 1 to 5, monitored up to day 12)	clinical scores [1, 5]	paw-swelling [1, 5]	histological severity of arthritis ([1]; established CIA, 100, 200 or 400 mg/kg/day, day 10)	clinical score [1, 6]	paw swelling [1, 6]	clinical score of arthritis by day 28 [2]	mice that had developed arthritis by day 28 ([2]; 7 mice)	adverse cardiovascular events [3]	differences between the groups in cytokine production on re-stimulation with collagen ([4]; 72 h culture in presence of type II collagen)	IFN-γ production by lymph node cells ([4]; mice given 400 mg/kg (b205 prints 400 mg/mouse) for 10 days, 72 h culture without collagen)	IL-10 production by lymph node cells ([4]; mice treated for 10 days, 72 h culture)
Nc1c(O)cccc1C(=O)O [3-Hydroxyanthranilic acid]	no action													
COc1ccc(/C=C/C(=O)Nc2ccccc2C(=O)O)cc1OC [Tranilast, 2-[[3-(3,4-dimethoxyphenyl)-1-oxo-2-propenyl]amino]benzoic acid]		dramatic reduction	9 days	dose-dependent reduction	dose-dependent reduction	dose-dependent reduction	significantly reduced	significantly reduced	1	14%	no significant increase	not significant	significantly reduced	no IL-10 was detected
